This passage reports Ki, IC50 and CC50 results from patent US5919790A, “Hydroxamate inhibitors of interleukin-1β converting enzyme” (Warner-Lambert Company, priority 1997, dated 1999).

Where two headings read alike, the source gives them in different places.

As a reminder, the Ki is the equilibrium dissociation constant of an inhibitor or competing ligand from its target. Read a low Ki as tighter binding. In general, IC50 refers to the concentration at which inhibition is half-maximal.

Data set [1] deals with T1, ICE (interleukin-1β converting enzyme) (Homo sapiens, UniProt P29466).
T1 sequence (P29466 120-297 limits assumed): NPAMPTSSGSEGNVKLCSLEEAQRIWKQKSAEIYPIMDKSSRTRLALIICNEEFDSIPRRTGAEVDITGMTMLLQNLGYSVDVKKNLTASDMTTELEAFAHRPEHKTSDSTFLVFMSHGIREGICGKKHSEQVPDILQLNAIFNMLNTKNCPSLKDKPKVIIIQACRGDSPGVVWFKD
T1 sequence (P29466 317-404 limits assumed): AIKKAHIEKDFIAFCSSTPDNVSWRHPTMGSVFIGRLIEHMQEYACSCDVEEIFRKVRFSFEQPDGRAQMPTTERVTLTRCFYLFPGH
Kind of data set: ICE inhibition, Ki, fluorescence assay with Ac-Tyr-Val-Ala-Asp-AMC. Type of data set: biochemical. The following applies: 15 μM substrate Ac-Tyr-Val-Ala-Asp-AMC; 0.24 nM ICE; reversible, competitive model. As to the method:
Substrate hydrolysis is monitored for 300 seconds by observing the fluorescence of released AMC using excitation at 380 nm and emission at 460 nm. Mean rates of substrate hydrolysis are evaluated by linear-regression analysis of the fluorescence vs time traces. […] ICE Colorimetric Dose-Response (IC50) Assay

The target of data set [2] is T1, ICE (interleukin-1β converting enzyme). Kind of data set: ICE Colorimetric Dose-Response (IC50) Assay. Type of data set: biochemical. The following applies: 50 μM Ac-Tyr-Val-Ala-Asp-pNA, 60 min preincubation, pH 7.5, 25° C. As to the method: Substrate hydrolysis is monitored for 300 seconds by observing the fluorescence of released AMC using excitation at 380 nm and emission at 460 nm. Mean rates of substrate hydrolysis are evaluated by linear-regression analysis of the fluorescence vs time traces. […] ICE Colorimetric Dose-Response (IC50) Assay Diluted inhibitor stocks are prepared by two-fold serial dilution from a primary stock whose concentration is selected (based on screening results or on prior attempts at IC50 evaluation) to achieve approximately 95% inhibition in the most concentrated well. Aliquots of each dilution are transferred to a microtitre plate in triplicate. […] The activated enzyme is then aliquoted into wells containing inhibitor or vehicle, and the plate is preincubated for 60 minutes at ambient temperature. Substrate ([…]) is added to each well to a final concentration of 50 μM, and plates are placed in the microtitre plate-reader thermostated to 25° C. Beginning 5 minutes after addition of substrate, absorbance (405 nm) of wells is monitored for 1 hour, and activity is calculated as the mean rate of change in absorbance during this interval.

In data set [3] the test system is IL-1β production in human peripheral blood mononuclear cells (PBMCs). Kind of data set: inhibition of LPS-stimulated IL-1β production in human PBMCs (ELISA). Type of data set: cell-based. Particulars: LPS stimulated overnight, mature IL-1β by ELISA. An excerpt:
(§1) Further evidence that compounds of Formula I are inhibitors of ICE is provided by their ability to inhibit IL-1β production in human peripheral blood mononuclear cells (PBMCs) as described herein. PBMCs are isolated from heparinized blood by centrifugation over a ficoll cushion, then washed three times with phosphate-buffered saline. PBMCs are suspended in a medium containing RPMI 1640 with glutamine, penicillin, streptomycin and 2% human AB serum, then plated at 10^6 cells per well in 96 well flat bottom plates. PBMCs are stimulated overnight with 10 ngmL of lipopolysaccharide (LPS, E. coli strain 0111:B4; Calbiochem) in the presence or absence of a compound of Formulas I or II. Medium is harvested and the level of mature IL-1β was determined using an ELISA kit from R & D Systems. Cells were cultured for an additional 4 hours in the presence of 3-(4,5-dimethylthiazol-2-yl)-2,5-diphenyltetrazolium bromide (MTT) to determine viability.

The next data set addresses T2, Ich-2 (Homo sapiens, UniProt P49662).
T2 sequence (P49662 81-270 limits assumed): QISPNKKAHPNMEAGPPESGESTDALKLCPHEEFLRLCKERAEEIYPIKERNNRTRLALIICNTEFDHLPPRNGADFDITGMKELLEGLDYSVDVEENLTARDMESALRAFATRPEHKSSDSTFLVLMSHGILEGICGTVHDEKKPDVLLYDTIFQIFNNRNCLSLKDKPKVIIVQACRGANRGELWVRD
T2 sequence (P49662 290-377 limits assumed): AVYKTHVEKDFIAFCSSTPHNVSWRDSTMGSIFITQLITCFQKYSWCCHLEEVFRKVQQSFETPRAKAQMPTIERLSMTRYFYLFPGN
Kind of data set: Ich-2 Colorimetric Dose-Response (IC50) Assay. Particulars: 64 nM enzyme, 60 μM Ac-Leu-Glu-Val-Asp-pNA. In kind it is biochemical. As to the method: Diluted inhibitor stocks are prepared by two-fold serial dilution from a primary stock whose concentration is selected (based on screening results or on prior attempts at IC50 evaluation) to achieve approximately 95% inhibition in the most concentrated well. Aliquots of each dilution are transferred to a microtitre plate in triplicate.
ICE enzyme is diluted to approximately 24 nM in HGE buffer (100 mM Hepes pH 7.5, 0.5 mM EDTA, 20% glycerol, 0.1% Bovine Serum Albumin (BSA), and activated by adding dithiothreitol (DTT) to a final concentration of 5 mM. The activated enzyme is then aliquoted into wells containing inhibitor or vehicle, and the plate is preincubated for 60 minutes at ambient temperature. Substrate (Ac-Tyr-Val-Ala-Asp-pNA) is added to each well to a final concentration of 50 μM, and plates are placed in the microtitre plate-reader thermostated to 25° C. Beginning 5 minutes after addition of substrate, absorbance (405 nm) of wells is monitored for 1 hour, and activity is calculated as the mean rate of change in absorbance during this interval.
Ich-2 Colorimetric Dose-Response (IC50 Assay
Inhibition of Ich-2 enzyme is assayed as described above for ICE, except that enzyme is used at 64 nM, and 60 μM of the Ich-2-specific substrate Ac-Leu-Glu-Val-Asp-pNA is used instead of the ICE substrate Ac-Tyr-Val-Ala-Asp-pNA.

The next data set in a line: PBMC viability (MTT). In kind it is cell-based. The following applies: human PBMCs, additional 4 hours, read-out: PBMC TC50.
From the text: as §1

In data set [1], `O=C(O)CC(NC(=O)OCc1ccccc1)C(=O)CONC(=O)Cc1ccccc1` (centres unmarked) [Example 1, 3-Benzyloxycarbonylamino-4-oxo-5-phenylacetylaminooxy-pentanoic acid] had a Ki of 79 µM. Moreover, the results for the IC50 in data set [2] and in data set [3] (PBMC) were 260 µM and 817 µM, respectively.

`O=C(O)C[C@H](NC(=O)OCc1ccccc1)C(=O)CON1CCCC1=O` [Example 2, 3-Benzyloxycarbonylamino-4-oxo-5-(2-oxo-pyrrolidin-1-yloxy)-pentanoic acid]: the affinity in data set [1] corresponds to a Ki of 87 µM. Further, inhibition in data set [2] was half-maximal at 397 µM (IC50).

On to `O=C(O)C[C@H](NC(=O)OCc1ccccc1)C(=O)CON1C(=O)C2C3C=CC(O3)C2C1=O` (some centres unmarked) [Example 3, 3-Benzyloxycarbonylamino-5-(3,5-dioxo-10-oxa-4-aza-tricyclo[5.2.1.0^2,6]dec-8-en-4-yloxy)-4-oxo-pentanoic acid], for which the IC50 is 0.1 µM against Ich-2, 0.46 µM in data set [2] and 1000 µM in data set [3] (PBMC). In data set [1], this compound had a Ki of 2.1 µM. Further, in the data set “PBMC viability (MTT)”, the CC50 at 4 h amounted to 1000 µM.

As to `O=C(O)CC(NC(=O)OCc1ccccc1)C(=O)CON1C(=O)Cc2ccccc21` (centres unmarked) [Example 4, 3-Benzyloxycarbonylamino-5-(2-oxo-2,3-dihydro-indol-1-yloxy)-4-oxo-pentannic acid], the figures for the IC50 (on Ich-2; in data set [2]; in data set [3] (PBMC)) were 0.079 µM, 3.1 µM and 1000 µM, respectively. This compound also came in with a Ki in data set [1] of 1.6 µM. The CC50 at 4 h in “PBMC viability (MTT)” was 1000 µM.

Consider `COC(=O)CC1CCCC2CC(=O)N(OCC(=O)[C@H](CC(=O)O)NC(=O)OCc3ccccc3)C12` (some centres unmarked) [Example 5, 3-Benzyloxycarbonylamino-5-(7-methoxycarbonylmethyl-2-oxo-octahydro-indol-1-yloxy)-4-oxo-pentanoic acid], for which the IC50 against Ich-2 worked out at 34 µM; in data set [2], 80 µM; in data set [3] (PBMC), 883 µM. In data set [1], this compound showed a Ki of 15 µM.

`O=C(O)CC(NC(=O)OCc1ccccc1)C(=O)CON1C(=O)CC2CCCCC21` (centres unmarked) [Example 6] had a Ki in data set [1] of 9.2 µM. This compound also displayed an IC50 in data set [2] of 37 µM.

Consider `COC(=O)CC1CCCC2CC(=O)N(OCC(=O)C(CC(=O)O)NC(=O)C(C)NC(=O)C(NC(=O)OCc3ccccc3)C(C)C)C12` (centres unmarked) [Example 7], for which the IC50 was 0.14 µM at Ich-2, 0.026 µM in data set [2] and 4.8 µM in data set [3] (read-out: PBMC IC50). Moreover, the Ki in data set [1] is 0.007 µM.

Turning to `CC(NC(=O)C(NC(=O)OCc1ccccc1)C(C)C)C(=O)NC(CC(=O)O)C(=O)CON1C(=O)Cc2ccccc21` (centres unmarked) [Example 8, 3-[2-(2-benzyloxicarbonylamino-3-methyl-butyrylamino)-propionylamino]-4-oxo-5-(2-oxo-2,3-dihydro-indol-1-yloxy)-pentanoic acid], the IC50 stood at 0.005 µM at Ich-2, 0.003 µM in data set [2] and 3 µM in data set [3] (PBMC). Also, the affinity in data set [1] corresponds to a Ki of 0.002 µM.
